Test results from patent publication US10005774B2, “Syk inhibitors” (Gilead Sciences, Inc., priority 2013, dated 2018).

Each compound was assayed against Syk (Homo sapiens, UniProt P43405) (assay: High Throughput Syk Biochemical Assay (KinEASE TR-FRET)). Settings: TABLE D, 20 μM ATP, 1 μM biotinylated peptide, 0.015 nM Syk, 30 min at room temperature, read-out: IC50.
Method in brief: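 Compounds in DMSO dilution series were tested against Syk, which phosphorylates an XL665-tagged peptide. The phosphoproduct was bound by Eu-labelled phosphotyrosine antibody in a two-step endpoint format.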
`COc1ccc(-c2cc3nc[nH]c3c(O[C@H](C)[C@H]3CNC(=O)C3)n2)cc1OC` [(R)-4-((R)-1-(6-(3,4-dimethoxyphenyl)-3H-imidazo[4,5-c]pyridin-4-yloxy)ethyl)pyrrolidin-2-one] showed an IC50 of 513 nM.
`COc1ccc(-c2cc3ncn(C)c3c(O[C@H](C)[C@H]3CNC(=O)C3)n2)cc1F` [(R)-4-((R)-1-(6-(3-fluoro-4-methoxyphenyl)-3-methyl-3H-imidazo[4,5-c]pyridin-4-yloxy)ethyl)pyrrolidin-2-one] gave an IC50 of 17.2 nM.
`CC(=O)N1CCN(c2ccc(-c3cc4ncn(C)c4c(O[C@H](C)[C@H]4CNC(=O)C4)n3)cc2)CC1` [(R)-4-((R)-1-(6-(4-(4-acetylpiperazin-1-yl)phenyl)-3-methyl-3H-imidazo[4,5-c]pyridin-4-yloxy)ethyl)pyrrolidin-2-one] was tested, and the IC50 was 3.14 nM.
With `Cc1cc(-c2cc3ncn(C)c3c(O[C@H](C)[C@H]3CNC(=O)C3)n2)ccc1N(C)C` [(R)-4-((R)-1-(6-(4-(dimethylamino)-3-methylphenyl)-3-methyl-3H-imidazo[4,5-c]pyridin-4-yloxy)ethyl)pyrrolidin-2-one] the IC50 was 5.31 nM.
`COc1cc(-c2cc3ncn(C)c3c(O[C@H](C)[C@H]3CNC(=O)C3)n2)ccc1F` [(R)-4-((R)-1-(6-(4-fluoro-3-methoxyphenyl)-3-methyl-3H-imidazo[4,5-c]pyridin-4-yloxy)ethyl)pyrrolidin-2-one] gave an IC50 of 39.5 nM.
`COc1ccc(-c2cc3ncn(C)c3c(O[C@H](C)[C@H]3CNC(=O)C3)n2)nc1OC` [(R)-4-((R)-1-(6-(5,6-dimethoxypyridin-2-yl)-3-methyl-3H-imidazo[4,5-c]pyridin-4-yloxy)ethyl)pyrrolidin-2-one] was tested, and the IC50 was 34 nM.
`COc1ccc(-c2cc3ncn(C)c3c(O[C@H](C)[C@H]3CNC(=O)C3)n2)cn1` [(R)-4-((R)-1-(6-(6-methoxypyridin-3-yl)-3-methyl-3H-imidazo[4,5-c]pyridin-4-yloxy)ethyl)pyrrolidin-2-one] gave an IC50 of 71.7 nM.
`C[C@@H](Oc1nc(-c2cccc3scnc23)cc2ncn(C)c12)[C@H]1CNC(=O)C1` [(R)-4-((R)-1-(6-(benzo[d]thiazol-4-yl)-3-methyl-3H-imidazo[4,5-c]pyridin-4-yloxy)ethyl)pyrrolidin-2-one] showed an IC50 of 184 nM.
`C[C@@H](Oc1nc(C2=CCCCC2)cc2ncn(C)c12)[C@H]1CNC(=O)C1` [(R)-4-((R)-1-(6-cyclohexenyl-3-methyl-3H-imidazo[4,5-c]pyridin-4-yloxy)ethyl)pyrrolidin-2-one] showed an IC50 of 124 nM.

Same assay, conditions: table 'ALL NEW COMPOUNDS IN 2014', 20 μM ATP, 1 μM biotinylated peptide, 0.015 nM Syk, 30 min at room temperature, read-out: Syk IC50
Work on `Cc1nc(-c2cc(O[C@H](C)[C@H]3CNC(=O)C3)c3c(c2)ncn3C2CC2)cn1C` [(R)-4-((R)-1-((1-cyclopropyl-5-(1,2-dimethyl-1H-imidazol-4-yl)-1H-benzo[d]imidazol-7-yl)oxy)ethyl)pyrrolidin-2-one] yielded an IC50 of 6.07 nM.
Compound `Cc1cc(-c2cc(O[C@H](C)[C@H]3CNC(=O)C3)c3c(c2)ncn3C2CC2)nn1C` [(R)-4-((R)-1-((1-cyclopropyl-5-(1,5-dimethyl-1H-pyrazol-3-yl)-1H-benzo[d]imidazol-7-yl)oxy)ethyl)pyrrolidin-2-one] has an IC50 of 2.15 nM.
With `C[C@@H](Oc1cc(-c2cnn(C(C)(C)CO)c2)cc2ncn(C3CC3)c12)[C@H]1CNC(=O)C1` [(R)-4-((R)-1-((1-cyclopropyl-5-(1-(1-hydroxy-2-methylpropan-2-yl)-1H-pyrazol-4-yl)-1H-benzo[d]imidazol-7-yl)oxy)ethyl)pyrrolidin-2-one] the IC50 was 1.99 nM.
For `C[C@@H](Oc1cc(-c2cnn(CC(C)(C)O)c2)cc2ncn(C3CC3)c12)[C@H]1CNC(=O)C1` [(R)-4-((R)-1-((1-cyclopropyl-5-(1-(2-hydroxy-2-methylpropyl)-1H-pyrazol-4-yl)-1H-benzo[d]imidazol-7-yl)oxy)ethyl)pyrrolidin-2-one], the IC50 was 1.73 nM.
In the case of `C[C@@H](Oc1cc(-c2cnn(C3COC3)c2)cc2ncn(C3CC3)c12)[C@H]1CNC(=O)C1` [(R)-4-((R)-1-((1-cyclopropyl-5-(1-(oxetan-3-yl)-1H-pyrazol-4-yl)-1H-benzo[d]imidazol-7-yl)oxy)ethyl)pyrrolidin-2-one], the IC50 is reported as 3.21 nM.
